In the supplement of paper PMC10307832:

Columns and labels:
Test in all cases: relative viability (nuclei count vs DMSO), 5 days (fraction); higher = more cells survive
[1] = compound: CN1CCN(c2ccc3nc(-c4c(N)c5c(F)cccc5[nH]c4=O)[nH]c3c2)CC1 [Dovitinib]
In short: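 Cells of lung cancer lines were placed in 1536-well plates and kept overnight at 37 °C. Pinning then delivered five library-drug doses (not always all listed), spaced by √10, onto plates anchored with vehicle, and the cells were left 5 days without changing medium. One step fixed, permeabilised and stained them with Hoechst, and MetaXpress counted nuclei in 4× images. Viability, as a median over plates, is treated-well nuclei divided by vehicle-well nuclei, with acceptance only at control CV below 25% and at least one doubling.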

[2] = compound: CN1CCN(c2ccc3nc(-c4c(N)c5c(F)cccc5[nH]c4=O)[nH]c3c2)CC1 [Dovitinib] + CC1(C)CCC(c2ccc(Cl)cc2)=C(CN2CCN(c3ccc(C(=O)NS(=O)(=O)c4ccc(N[C@H](CCN5CCOCC5)CSc5ccccc5)c(S(=O)(=O)C(F)(F)F)c4)cc3)CC2)C1 [Navitoclax] (partner 0.5 µM)
In short: (§1)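 Relative viability is defined as nuclei in treated wells over nuclei in vehicle wells. Duplicate plates were run and medians reported. Lung cancer cell lines in 1536-well plates were dosed by pin tool one day after seeding, with one drug or with a fixed anchor-drug dose plus five library-drug doses (not always all listed) in √10 steps, and nuclei were counted after 5 days.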

[3] = compound: CN1CCN(c2ccc3nc(-c4c(N)c5c(F)cccc5[nH]c4=O)[nH]c3c2)CC1 [Dovitinib] + Cc1cc(Nc2cc(N3CCN(C)CC3)nc(Sc3ccc(NC(=O)C4CC4)cc3)n2)n[nH]1 [Tozasertib] (partner 0.1 µM)
In short: as §1

[4] = compound: CN1CCN(c2ccc3nc(-c4c(N)c5c(F)cccc5[nH]c4=O)[nH]c3c2)CC1 [Dovitinib] + N=C(N)NC(=N)NCCc1ccccc1 [Phenformin] (partner 250 µM)
In short: as §1

| Cell Line | relative viability ([1]; 0.02 µM) | relative viability ([1]; 0.06325 µM) | relative viability ([1]; 0.2 µM) | relative viability ([1]; 0.6325 µM) | relative viability ([1]; 2 µM) | relative viability ([2]; first compound 0.02 µM) | relative viability ([2]; first compound 0.06325 µM) | relative viability ([2]; first compound 0.2 µM) | relative viability ([2]; first compound 0.6325 µM) | relative viability ([2]; first compound 2 µM) | relative viability ([3]; first compound 0.02 µM) | relative viability ([3]; first compound 0.06325 µM) | relative viability ([3]; first compound 0.2 µM) | relative viability ([3]; first compound 0.6325 µM) | relative viability ([3]; first compound 2 µM) | relative viability ([4]; first compound 0.02 µM) | relative viability ([4]; first compound 0.06325 µM) | relative viability ([4]; first compound 0.2 µM) | relative viability ([4]; first compound 0.6325 µM) | relative viability ([4]; first compound 2 µM) |
| --- | --- | --- | --- | --- | --- | --- | --- | --- | --- | --- | --- | --- | --- | --- | --- | --- | --- | --- | --- | --- |
| LK-2 | 0.944 | 0.974 | 0.895 | 0.975 | 0.847 | 0.995 | 0.896 | 0.876 | 0.766 | 0.767 | 0.175 | 0.182 | 0.182 | 0.181 | 0.149 | 0.539 | 0.306 | 0.38 | 0.486 | 0.342 |
| LOU-NH91 | 1.02 | 0.945 | 0.939 | 1.07 | 0.984 | 0.687 | 0.72 | 0.684 | 0.7 | 0.804 | 0.708 | 0.659 | 0.611 | 0.678 | 0.776 | 0.826 | 0.666 | 0.748 | 0.785 | 0.775 |
| LU99A | 0.911 | 0.944 | 0.971 | 0.97 | 1.04 | 0.78 | 0.787 | 0.747 | 0.774 | 0.727 | 0.222 | 0.226 | 0.272 | 0.239 | 0.251 | 0.814 | 0.811 | 0.926 | 0.86 | 0.864 |
| LXF-289 | 0.938 | 1.01 | 0.999 | 1.02 | 0.979 | 0.909 | 0.929 | 0.945 | 0.941 | 0.858 | 0.214 | 0.228 | 0.195 | 0.189 | 0.171 | 0.514 | 0.532 | 0.551 | 0.513 | 0.537 |
| NCI-H23 | 1.01 | 1.03 | 1.07 | 1.02 | 0.952 | 0.83 | 0.759 | 0.769 | 0.908 | 0.764 | 0.293 | 0.475 | 0.581 | 0.354 | 0.358 | 0.888 | 0.843 | 0.746 | 0.737 | 0.754 |
| NCI-H322M | 0.885 | 0.926 | 0.918 | 0.977 | 0.97 | 1.17 | 1.25 | 1.21 | 1.27 | 1.23 | 0.482 | 0.497 | 0.523 | 0.436 | 0.493 | 0.685 | 0.737 | 0.811 | 0.751 | 0.815 |
| NCI-H441 | 1.08 | 1.11 | 1.04 | 1.07 | 1.06 | 0.665 | 0.54 | 0.911 | 0.572 | 0.775 | 0.668 | 0.599 | 0.559 | 0.626 | 0.575 | 0.981 | 0.786 | 0.767 | 0.898 | 0.839 |
| NCI-H460 | 0.982 | 1.02 | 0.993 | 0.985 | 0.964 | 0.961 | 1.14 | 1.02 | 1.08 | 1.14 | 0.495 | 0.472 | 0.421 | 0.418 | 0.461 | 0.488 | 0.563 | 0.517 | 0.49 | 0.498 |
| NCI-H520 | 1.01 | 1.02 | 0.944 | 0.976 | 0.955 | 1.17 | 1.21 | 1.09 | 1.03 | 0.905 | 0.453 | 0.486 | 0.409 | 0.431 | 0.427 | 0.558 | 0.572 | 0.625 | 0.514 | 0.545 |
| NCI-H596 | 0.965 | 0.957 | 1 | 1.12 | 0.932 | 1.02 | 0.987 | 0.871 | 0.768 | 0.696 | 0.985 | 0.982 | 0.963 | 0.838 | 0.754 | 0.711 | 0.864 | 0.785 | 0.815 | 0.804 |
| NCI-H647 | 0.957 | 0.991 | 1.04 | 0.991 | 0.949 | 0.958 | 1.04 | 1.14 | 1.04 | 0.949 | 0.297 | 0.317 | 0.452 | 0.279 | 0.315 | 0.396 | 0.49 | 0.638 | 0.621 | 0.48 |
| NCI-H727 | 1.1 | 0.782 | 0.968 | 0.989 | 0.921 | 0.497 | 0.491 | 0.421 | 0.468 | 0.414 | 0.573 | 0.658 | 0.588 | 0.691 | 0.761 | 0.524 | 0.488 | 0.664 | 0.516 | 0.642 |
| NCI-H838 | 0.935 | 1 | 1.01 | 0.95 | 0.966 | 1.11 | 1.19 | 1.17 | 1.22 | 1.11 | 0.236 | 0.263 | 0.282 | 0.295 | 0.252 | 0.553 | 0.627 | 0.74 | 0.62 | 0.662 |
| NCI-H1355 | 1.04 | 0.931 | 1.04 | 0.989 | 1.07 | 0.917 | 0.958 | 1.04 | 0.985 | 1.08 | 0.567 | 0.566 | 0.618 | 0.54 | 0.596 | 0.428 | 0.428 | 0.477 | 0.433 | 0.529 |
| NCI-H1395 | 0.99 | 0.849 | 0.959 | 0.827 | 1.15 | 1.26 | 1.53 | 1.26 | 1.01 | 1.21 | 0.721 | 0.75 | 0.81 | 0.765 | 0.815 | 0.455 | 0.415 | 0.488 | 0.445 | 0.462 |
